Drawing on ChEMBL document CHEMBL1134802, “Biphenyls as surrogates of the steroidal backbone. Part 1: synthesis and estrogen receptor affinity of an original series of polysubstituted biphenyls” (Bioorg Med Chem Lett, 2001), this text covers Activity for 29 molecules.

The structures appear in SMILES notation.

The target in the first experiment is T1, Estrogen receptor (Homo sapiens) (UniProt P03372).
T1 sequence (whole entry): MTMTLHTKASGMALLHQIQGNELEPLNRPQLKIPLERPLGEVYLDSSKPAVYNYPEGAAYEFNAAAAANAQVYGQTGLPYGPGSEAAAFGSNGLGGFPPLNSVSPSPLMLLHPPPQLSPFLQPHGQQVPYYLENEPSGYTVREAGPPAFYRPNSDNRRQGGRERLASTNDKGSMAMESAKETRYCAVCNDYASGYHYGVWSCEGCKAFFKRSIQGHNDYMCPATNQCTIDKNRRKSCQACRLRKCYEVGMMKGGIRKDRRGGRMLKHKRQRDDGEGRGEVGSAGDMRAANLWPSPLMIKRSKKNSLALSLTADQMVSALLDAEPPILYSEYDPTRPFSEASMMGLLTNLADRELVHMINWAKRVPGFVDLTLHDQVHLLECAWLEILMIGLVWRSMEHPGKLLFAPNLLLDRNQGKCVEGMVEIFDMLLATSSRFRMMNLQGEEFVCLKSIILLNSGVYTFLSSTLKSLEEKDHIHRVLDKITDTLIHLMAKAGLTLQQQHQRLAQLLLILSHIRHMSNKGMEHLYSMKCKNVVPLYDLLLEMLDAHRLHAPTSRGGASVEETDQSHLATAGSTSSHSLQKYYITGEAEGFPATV
Briefly: Binding affinity for human estrogen receptor alpha after 24 hr r at 0C.
In turn, `OCc1cc(Br)c(-c2ccc(O)cc2)c(Br)c1` gave an Activity of 106%.

The target in another experiment is T1, Estrogen receptor (Homo sapiens). Briefly: Receptor binding affinity (RBA) to human recombinant estrogen receptor alpha (REH) after 24 hours at 0 degree Centigrade.
For `OCc1ccc(-c2c(Cl)cc(O)cc2Cl)cc1`, the Activity was determined as 0.4%. Same read-out and setting: under `OCc1cc(Cl)c(-c2ccc(O)cc2)c(-c2ccc(O)cc2)c1` stands 1%; under `O=[N+]([O-])c1cc(CO)cc(Br)c1-c1ccc(O)cc1`, 34%; under `OCc1ccc(-c2c(Cl)c(Cl)c(O)c(Cl)c2Cl)cc1`, 0%. Still for that read-out and setting: under `OCc1cc(Br)c(-c2ccc(O)cc2)c(-n2cccc2)c1` stands 2%; under `Cc1cc(-c2ccc(CO)cc2)cc(C)c1O`, 0%; under `Cc1cc(CO)cc(C)c1-c1ccc(O)cc1`, 0.8%. As for `OCc1cc(Cl)c(-c2ccc(O)cc2Cl)c(Cl)c1`, the Activity is 21%. On the same count and under the same terms, the value for `OCc1cc(Cl)c(-c2ccc(O)cc2)c(Cl)c1` was 34%; that for `Cc1cc(O)cc(C)c1-c1ccc(CO)cc1` was 0.06%; that for `OCc1cc(Br)c(-c2ccc(O)cc2)c(I)c1` was 41%. Still for that read-out and setting: the value for `COc1cc(CO)cc(OC)c1-c1ccc(O)cc1` was 0.24%. Same read-out and setting: under `CN(C)C#Cc1cc(CO)cc(Br)c1-c1ccc(O)cc1` stands 0.2%; under `OCc1ccc(-c2ccc(O)cc2)c(Cl)c1`, 2%; under `OCc1cc(F)c(-c2ccc(O)cc2)c(F)c1`, 0.93%. With `CC(C)c1cc(CO)cc(Cl)c1-c1ccc(O)cc1`, the Activity turned out to be 22%. Still for that read-out and setting: under `Nc1cc(CO)cc([N+](=O)[O-])c1-c1ccc(O)cc1` stands 0.03%; under `O=[N+]([O-])c1cc(CO)cc([N+](=O)[O-])c1-c1ccc(O)cc1`, 5%. Regarding `Nc1cc(CO)cc(Br)c1-c1ccc(O)cc1`, the Activity worked out at 0.03%. Same read-out and setting: the value for `OCc1cc(Cl)c(-c2ccc(O)c(Cc3ccccc3)c2)c(Cl)c1` was 0.07%. Same read-out and setting: under `CSc1cc(CO)cc(Br)c1-c1ccc(O)cc1` stands 4.5%; under `OCc1ccc(-c2ccc(O)cc2Cl)cc1`, 0.03%; under `OCc1cc(Cl)c(-c2ccc(O)cc2)c(C(F)(F)F)c1`, 50%.

On to `OCc1ccc(-c2ccc(O)cc2)c(-c2ccc(O)cc2)c1`, for which the Activity is 1%.

On to `OCc1ccc(-c2cc(Br)c(O)c(Br)c2)cc1`, for which the Activity was 0%.

As to `COc1cc(CO)cc(Cl)c1-c1ccc(O)cc1`, the Activity was 2.5%.

Turning to `OCc1c(Cl)c(Cl)c(-c2ccc(O)cc2)c(Cl)c1Cl`, the Activity was 5.4%. As for `OCc1ccc(-c2ccc(O)cc2)c(C(F)(F)F)c1`, the Activity turned out to be 9.5%.

A further experiment has the same target. Briefly: Binding affinity for human estrogen receptor alpha after 3 hr at 0C.
For the molecule `OCc1cc(Cl)c(-c2ccc(O)cc2)c(Cl)c1`, the Activity was determined as 104%. Same read-out and setting: under `OCc1cc(Br)c(-c2ccc(O)cc2)c(Br)c1` stands 425%; under `O=[N+]([O-])c1cc(CO)cc([N+](=O)[O-])c1-c1ccc(O)cc1`, 24%; under `OCc1ccc(-c2ccc(O)cc2)c(C(F)(F)F)c1`, 33%.
